Experimental data as given in ChEMBL document CHEMBL1148058, “Antibacterial triterpenoid acids from Dillenia papuana” (1994).

What was measured:
Type in all cases: functional
[1] = system: Escherichia coli; test: Antibacterial activity against Escherichia coli ATCC 25922
[2] = system: Bacillus subtilis; test: Antibacterial activity against Bacillus subtilis ATCC 6633
[3] = system: Micrococcus luteus; test: Antibacterial activity against Micrococcus luteus ATCC 9341

SMILES	MIC [1]	MIC [2]	MIC [3]
CC1(C)C(=O)C=C[C@]2(C)[C@H]3CC=C4[C@@H]5C[C@@](C)(C(=O)O)CC[C@]5(C)CC[C@@]4(C)[C@]3(C)CC[C@@H]12	1 µg	1 µg	1 µg
O=C(N[C@H](CO)[C@H](O)c1ccc([N+](=O)[O-])cc1)C(Cl)Cl [CHLORAMPHENICOL]	0.04 µg	0.1 µg	0.04 µg
CC1(C)C(=O)[C@H](O)C[C@]2(C)[C@H]3CC=C4[C@@H]5C[C@@](C)(C(=O)O)CC[C@]5(C)CC[C@@]4(C)[C@]3(C)CC[C@@H]12 [DILLENIC ACID A]	2.4 µg	2.4 µg	1.2 µg
CC1(C)[C@@H](O)C(=O)C[C@]2(C)[C@H]3CC=C4[C@@H]5C[C@@](C)(C(=O)O)CC[C@]5(C)CC[C@@]4(C)[C@]3(C)CC[C@@H]12 [DILLENIC ACID B]	1 µg	2 µg	1 µg
CC1(C)C(=O)C[C@H](O)[C@]2(C)[C@H]3CC=C4[C@@H]5C[C@@](C)(C(=O)O)CC[C@]5(C)CC[C@@]4(C)[C@]3(C)CC[C@@H]12 [DILLENIC ACID C]	5 µg	2 µg	2 µg
